Here are results for 88 compounds from ChEMBL document CHEMBL1157539, “Thousands of chemical starting points for antimalarial lead identification” (Nature, 2010).

The assay has as its system Plasmodium falciparum. Put plainly: GSK_TCMDC: Inhibition of Plasmodium falciparum 3D7 in whole erythrocytes, using parasite LDH activity as an index of growth. Format: functional, organism-based. The conditions noted are these: Plasmodium falciparum, 3D7.
As to `O=[N+]([O-])c1cccc(/C=N/Nc2ccnc3cc(F)ccc23)c1`, the XC50 is 910 nM.

For the compound `O=C(Cn1c(CCc2cccc(F)c2F)nc(=O)c2ccccc21)N(CCN1CCCCC1)Cc1ccc(-c2ccc(C(F)(F)F)cc2)cc1`, the XC50 stood at 757 nM. `COC(=O)/C=C/c1ccc(CCC(C)NCC(O)c2cccc(Cl)c2)cc1` (stereo not drawn) had an XC50 of 935 nM.

`CC1(C)[C@H]2CC[C@@H](CNc3nc(NCCc4c[nH]cn4)nc(Nc4ccc5c(c4)OCO5)n3)[C@@H]1C2` had an XC50 of 537 nM. To `CSc1ccc(NC(=O)Nc2cc(C)nc3ccccc23)cc1` belongs 713 nM; to `O=C(CSc1nc(-c2ccccc2Cl)ns1)Nc1cccc(Cl)c1`, 787 nM; to `CCn1c(-c2nonc2N)nc2cnc(Oc3cccc(NC(=O)c4ccc(OCCN5CCCCC5)cc4)c3)cc21`, 1060 nM. To `CC(C)CNCc1cccc(-c2ccc(CNc3ccc4ncccc4c3)cc2)c1` belongs 1060 nM. To `CS(=O)(=O)CCNCc1nc(-c2ccc3ncnc(Nc4ccc(OCc5cccc(F)c5)c(Cl)c4)c3c2)cs1` belongs 771 nM; to `COCCNCc1ncsc1-c1ccc2c(Nc3cc(O)c(Cl)cc3F)ccnc2c1`, 547 nM; to `CN1CCCC1CCNCc1cccc(-c2cnc(N(C)C3CCCCC3)nc2)c1` (stereo not drawn), 853 nM. `CN1CCCN(Cc2cccc(-c3ccc(NC(=O)c4cccc(Cl)c4)cc3)c2)CC1` yielded an XC50 of 927 nM. To `CCNc1cc(C)nc(Nc2ccc(NC(=O)c3ccccc3Br)cc2)n1` belongs 742 nM; to `CCCCCN1CCC(NC(=O)c2ccc(C(=O)Nc3ccc(C(C)C)cc3)cc2)CC1`, 845 nM. With `Cc1c(Cc2ccc(F)cc2)c(Cl)nc2nc(N)nc(N)c12` the figure was 861 nM; with `CCCOc1cc(OCCC)cc(-c2ccc(C(=O)Nc3ccc4ccc(C)nc4c3)c(=O)[nH]2)c1`, 750 nM.

For the compound `NCc1ccc(-c2ccccc2CN(C(=O)Nc2ccccc2)C2CCN(Cc3ccccc3)CC2)cc1`, the XC50 turned out to be 880 nM. To `COc1ccc(NC(=O)/C=C/c2ccccc2Cl)cc1OCCN1CCC(N2CCCC2)CC1` belongs 786 nM; to `CCc1ccc(OCCCON2C(=N)N=C(N)NC2(C)C)cc1`, 3.2 nM; to `S=C(NN=Cc1ccccn1)NC1CC2C=CC1C2` (stereo not drawn), 721 nM. `CN(C)c1ccc(CN2CCC(NC(=O)c3ccc(-c4ccccc4Cl)s3)CC2)cc1` had an XC50 of 899 nM. With `CCCCCCCc1c2c(C)c(C(=O)OCC)nc-2cc2n1CC(C)=C2C` the figure was 1140 nM; with `CCC(CC)CN1C(=O)C(C)(c2ccccc2)N=C1N` (stereo not drawn), 1060 nM; with `CCc1cc(NC2CCN(C)CC2)nc(Nc2ccc(C)cc2)n1`, 694 nM.

On to `CC(C)Oc1cc2c(cc1NS(=O)(=O)c1ccc(-c3ccc(Cl)cc3)cc1F)CCN(C)CC2`, for which the XC50 is 919 nM. With `O=C(Nc1cccc(CN2CCCN(CC3CC3)CC2)c1)c1ccc(Cl)c(Cl)c1` the figure was 1030 nM. With `O=C(c1cc(C(=O)Nc2ccc(F)cc2)c(=O)n(-c2ccc(F)cc2)c1)c1cc(Cl)ccc1O` the figure was 219 nM. With `Nc1cnc(C#Cc2cc3ncnc(N(CCN4CCOCC4)c4ccc(OCc5cccc(F)c5)c(Cl)c4)c3s2)cn1` the figure was 1050 nM. In the case of `Cc1cc(N[C@@H](Cc2ccccc2)C(=O)NC2CCCC2)nc(NCCOc2ccccc2)n1`, the XC50 came out at 1110 nM. Regarding `O=C(NCCN1CCCC1)c1cccc(-c2ccc(-c3nc4cc(F)ccc4[nH]3)s2)c1`, the XC50 is 1530 nM.

Regarding `Cc1[nH]c2ccc([N+](=O)[O-])cc2c1C1=CCN(C)CC1`, the XC50 worked out at 335 nM. With `Cc1cc2cc(NC(=O)Nc3ccnc4ccccc34)ccc2n1C` the figure was 1090 nM; with `Cc1ccc(Nc2nc3cc(N(C)c4ccnc(Nc5cccc(CS(C)(=O)=O)c5)n4)ccc3o2)cc1`, 973 nM.

Compound `O=C(Nc1ccc(Cl)cc1)Nc1ccc2nonc2c1` returned an XC50 of 1100 nM.

Take `CC(C)Nc1cc(C(=O)N[C@@H](Cc2ccccc2)[C@H](O)CNC2CCOCC2)c(F)c(N2CCCCS2(=O)=O)c1`: the XC50 was found to be 183 nM.

Consider `Cn1c(NCc2cc(F)cc3c2OCOC3)nc2cc(Nc3ccnc(Nc4cccc(CS(C)(=O)=O)c4)n3)ccc21`, for which the XC50 worked out at 149 nM.

As for `O=C(c1cc2ccccc2o1)N1CCc2cc3nccc(N4CCN5CCC[C@H]5C4)c3cc21`, the XC50 was 812 nM. With `Fc1ccc(C(OCC2CCCN(Cc3cccc4cccnc34)C2)c2ccc(F)cc2)cc1` (stereo not drawn) the figure was 703 nM. With `COc1ccc(C(=O)N2CCC(C(=O)NC(C)c3ccc(-n4ccnc4)cc3)CC2)c2ccccc12` (stereo not drawn), the XC50 came to 1130 nM.

Regarding `CC(=O)Oc1c(C2CCN(CCCCNC(=O)c3ccc(NC(=O)c4ccc(Cl)cc4)cc3)CC2)ccc2ccccc12`, the XC50 was determined as 881 nM. To `CCN(Cc1ccccc1)CC(O)c1ccc(Cl)c(Cl)c1` (stereo not drawn) belongs 182 nM. To `CCCCCCCCCCNCC(O)c1ccc(O)c(C(=O)OC)c1` (stereo not drawn) belongs 717 nM. Consider `CCNCCCC(C)Nc1ccnc2cc(Cl)ccc12` (stereo not drawn), for which the XC50 was determined as 200 nM. To `CN(C)CCOc1cc(NC(=O)/C=C/c2cccc3ccccc23)ccc1I` belongs 1260 nM. With `O=[N+]([O-])c1cc(/C=N/Nc2nc3ccccc3[nH]2)ccc1O` the figure was 954 nM; with `CCCCN1CCN(c2cc(NS(=O)(=O)c3cccc(C(=O)Nc4ccc(C(F)(F)F)cc4)c3)ccc2OC)CC1`, 685 nM. To `Cc1cc(N2CCCC2)nc(Nc2ccc(NC(=O)c3ccccc3F)cc2)n1` belongs 922 nM.

The compound `CN1CCN(c2ccc(-c3cccc(NC(=O)c4cccc(Cl)c4)c3)nn2)CC1` gave an XC50 of 579 nM. With `Cc1nc(N/C(N)=N/C(=O)NC2CCCCC2)nc2ccccc12`, the XC50 is 791 nM. The compound `CN1CCC(Oc2ccc(NC(=O)c3ccc4c(=O)n(Cc5ccccc5)cnc4c3)cc2Cl)CC1` returned an XC50 of 954 nM. `COc1ccccc1C1CCN(C2CCC(NC(=O)c3cc(-c4ccc(Cl)cc4)cs3)CC2)CC1` (stereo not drawn) showed an XC50 of 383 nM. Regarding `O=C(c1ccc(O)c(-c2cc(Cl)cc(Cl)c2)c1)N(CCO)CCO`, the XC50 came to 908 nM. To `CN1CCN(Cc2nc(-c3ccc4c(Nc5ccc(Oc6ccccc6)cc5)ccnc4c3)cs2)CC1` belongs 310 nM; to `COc1ccc2c(NN=Cc3cccc(Cl)c3)ccnc2c1`, 716 nM.

The compound `Cc1cc(N2CCN(C(=O)OC(C)(C)C)CC2)ccc1N` gave an XC50 of 865 nM. To `Cc1sc(N2CCN(C)CC2)nc1C(=O)Nc1ccc(F)cc1C(F)(F)F` belongs 1070 nM. With `CCc1ccc(C2CCN(CCCCNC(=O)c3ccc(NC(=O)c4ccc(Cl)cc4)cc3)CC2)c(OCCO)c1` the figure was 1390 nM. `O=C(Nc1ccc2c(c1)CNCC2)c1ccc(-c2ccc(Cl)cc2)cc1` had an XC50 of 662 nM. The compound `CCNc1cc(C)nc(Nc2ccc(C)cc2)n1` gave an XC50 of 730 nM. With `COc1ccc(CCON2C(=N)N=C(N)NC2(C)C)cc1OC` the figure was 5.91 nM; with `OC1(C(F)(F)F)CC(c2ccccc2)=NN1c1nncc(-c2ccccc2)n1` (stereo not drawn), 735 nM; with `Clc1ccc(Cc2nc3ccccc3[nH]2)cc1Cl`, 246 nM.

On to `CN(CCc1ccccn1)c1cccc2c1nc(-c1cccnc1)n2CCNCc1ccccc1`, for which the XC50 is 1060 nM. Compound `CN(Cc1ccccc1)C1CCCN(c2cc(NC(=O)c3cccs3)ccn2)C1` (stereo not drawn) displayed an XC50 of 1130 nM. To `CCCCN(C)CC#Cc1ccc2[nH]c(C)c(Cl)c(=O)c2c1` belongs 130 nM; to `COCCOc1ccc(Nc2nccc(-c3c(-c4cccc(NC(=O)c5c(F)cccc5F)c4)nn4ccccc34)n2)cc1Cl`, 356 nM; to `O=C(/C=C/c1ccc(Cl)c(Cl)c1)NC1CCN(CCCNC(=O)c2cccc(Cl)c2)CC1`, 659 nM. `CCCCCC(NCCCC)c1ccc(OCCOc2ccc(C(CCCCC)NCCCC)cc2)cc1` (stereo not drawn) showed an XC50 of 1240 nM. With `CCCC[C@H](NC(=O)O[C@H](COc1ccc(OCc2ccccc2)cc1)C(C)(C)C)C(=O)C(=O)Nc1cc[nH]n1` the figure was 991 nM.

In the case of `CC(C)CNCc1cccc(-c2cccc(CNCCCN3CCN(C)CC3)c2)c1`, the XC50 came to 1180 nM. With `CC(=O)C1(c2ccccc2)CCN(CCC(NC(=O)c2cc(C(F)(F)F)cc(C(F)(F)F)c2)c2ccc(Cl)c(Cl)c2)CC1` (stereo not drawn) the figure was 1190 nM; with `COc1ccc2[nH]c(C)cc(=NN=Cc3ccccc3)c2c1`, 1030 nM. With `O=C(Nc1ccccc1Cc1ccccc1)c1ccccc1C(F)(F)F` the figure was 782 nM. To `CN1CCCc2ccc(NC(=O)Nc3ccc(-c4ccccc4)cc3)cc2C1` belongs 380 nM; to `CC(C)(C)c1ccc(S(=O)(=O)Nc2cc(Cl)ccc2Cn2ccc(N3CCNCC3)nc2=O)cc1`, 827 nM; to `CC1(C)N=C(N)N=C(NOCCCCCCONC2=NC(N)=NC(C)(C)N2)N1`, 33.3 nM. For `CNC(=O)c1ccccc1Nc1nc(Nc2ccc(C(=O)O)cc2)ncc1Cl`, the XC50 is 950 nM. In turn, `C=C[C@]1(C)C[C@@H](OC(=O)CNC[C@@H](O)CN2C[C@H](c3ccnc4ccc(OC)nc34)OC2=O)[C@@]2(C)[C@@H]3C(=O)CC[C@@]3(CC[C@@H]2C)[C@@H](C)[C@@H]1O` had an XC50 of 948 nM. To `CN1CCN(CC2(Nc3nccc(NCCc4cn(C)c5ccccc45)n3)CCCCC2)CC1` belongs 1810 nM; to `CCCCN(CCCC)CC(O)c1cc(-c2ccc(Cl)cc2)nc2c(Cl)cc(Cl)cc12` (stereo not drawn), 26.3 nM; to `CC(C)Cn1c(Sc2ccc(C#N)c([N+](=O)[O-])c2)nnc1-c1cccc(Cl)c1`, 301 nM. To `O=C(C=Cc1ccc(Cl)c(Cl)c1)NCCCCCN1CCCC(CCCNS(=O)(=O)c2ccc(Br)cc2)C1` (stereo not drawn) belongs 955 nM; to `CCCCCn1c(Sc2ccc(C#N)c([N+](=O)[O-])c2)nnc1-c1ccc(Cl)cc1`, 1080 nM; to `COc1ccc(-c2ccc3c(-c4ccc(F)cc4)cnc(N)c3c2)cn1`, 388 nM. To `CCC(C(C)C)n1ccc2c3c(N)nc(N)nc3ccc21` (stereo not drawn) belongs 3.2 nM; to `Cc1ccc2c(c1)c(C1CCN(C(=O)c3ccc([N+](=O)[O-])o3)CC1)cn2C`, 746 nM; to `CCn1ccc2c(N3CCCS3(=O)=O)cc(C(=O)N[C@@H](Cc3ccccc3)[C@H](O)CNC3CCCCC3)cc21`, 137 nM.

Consider `O=C(O[C@H]1CN[C@H](C#Cc2cc3c(Nc4ccc(OCc5cccc(F)c5)c(Cl)c4)ncnc3s2)C1)N1CCCC1`, for which the XC50 was 707 nM.
